Key:
Glycine max = assay: Greenhouse post-emergence herbicidal efficacy, % weed control; assay type: in vivo; conditions: for % control: Table 8, L-glufosinate ammonium 150, haloxyfop 50 g ai/ha
Description: (§1) This effectiveness of all treatments can be evaluated according to Colby's equation. In the Colby's equation given below, E is the expected efficacy of combination of L-glufosinate, salts, esters, or combinations thereof, and an herbicide of the phenoxypropionic herbicide class, • X is the observed efficacy of L-glufosinate, salts, esters, or combinations thereof and • Y is the observed efficacy of the herbicide of the phenoxypropionic herbicide class.
(§2) Observed efficacy values i.e. X and Y are % weed control for L-glufosinate, salts, esters, or combinations thereof and an herbicide of the phenoxypropionic herbicide class. If observed efficacy of combination of L-glufosinate, salts, esters, or combinations thereof and the herbicide of the phenoxypropionic herbicide class is greater than its expected efficacy, then combination is determined to be synergistic. If observed efficacy is equal to or less than expected efficacy, then combination is determined to be non-synergistic.
(§3) Methodology: Greenhouse trials were carried out to evaluate the efficacy of the combination of L-glufosinate ammonium and phenoxypropionic herbicides—haloxyfop, quizalofop-ethyl, quizalofop-P-tefuryl—on weeds Eleusine indica, Brachiaria decumbens, Spermacoce latifolia and Glycine max.
(§4) The soil used was sandy clay loam-Sand: 68.0%; Silt: 8.0%; Clay: 24.0%.
(§5) All treatments were in 4 replications per treatment with a spray volume of […].
(§6) The expected efficacy of a combination of L-glufosinate and the other herbicides was calculated using the well-established Colby method. Any difference between the observed and “expected” efficacy could be attributed to synergy between the two compounds. (Colby, S. R., Weeds, 1967 (15), p. 20-22).
Experiment was conducted to assess the efficacy herbicidal combination comprising L-glufosinate ammonium (glufosinate-p-ammonium) and haloxyfop to control the weed, Glycine max.
The percentage efficacy was calculated after 3, 7, 14, 21, 28, 35 days of application (DAA). The target weed was Glycine max, and the concentration of the herbicide and the results are recorded in the table 8 below:
Experiments were conducted to assess the efficacy of herbicidal combination comprising L-glufosinate ammonium (glufosinate-p-ammonium) and quizalofop-ethyl to control the weedy Glycine max.
The percentage efficacy was calculated after 3, 28 and 35 days of applications (DAA). The target weed was Glycine max, and the concentration of the herbicide and the results are recorded in the table 9 below:
Experiments were conducted to assess the efficacy of herbicidal combination comprising L-glufosinate ammonium (glufosinate-p-ammonium) and quizalofop-p-tefuryl to control the weedy Glycine max.
The percentage efficacy was calculated after 3, 28 and 35 days of applications (DAA). The target weed was Glycine max, and the concentration of the herbicide and the results are recorded in the table 10 below.

Eleusine indica = assay: as above; assay type: in vivo; conditions: for Control %: Table 6, L-glufosinate ammonium 150, quizalofop-p-tefuryl 25 g/ha
Description: as §1, §2, §3, §4, §5, §6
Experiment was conducted to assess the efficacy herbicidal combination comprising L-glufosinate ammonium (glufosinate-p-ammonium) and haloxyfop to control the weed, Eleusine indica.
The percentage efficacy was calculated after 7 days of application (DAA). The target weed was Eleusine indica, and the concentration of the herbicide and the results are recorded in the table 4 below:
Experiment was conducted to assess the efficacy herbicidal combination comprising L-glufosinate ammonium (glufosinate-p-ammonium) and quizalofop-ethyl to control the weed, Eleusine indica.
The percentage efficacy was calculated after 21 days of application (DAA). The target weed was Eleusine indica, and the concentration of the herbicide and the results are recorded in the table 5 below:
Experiment was conducted to assess the efficacy herbicidal combination comprising L-glufosinate ammonium (glufosinate-p-ammonium) and quizalofop-P-tefuryl to control the weed, Eleusine indica.
The percentage efficacy was calculated after 21, 28, 35 days of application (DAA). The target weed was Eleusine indica, and the concentration of the herbicide and the results are recorded in the table 6 below: […]

Brachiaria decumbens = assay: as above; assay type: in vivo
Description: as §1, §2, §3, §4, §5, §6
Experiment was conducted to assess the efficacy herbicidal combination comprising L-glufosinate ammonium (glufosinate-p-ammonium) and haloxyfop to control the weed, Brachiaria decumbens.
The percentage efficacy was calculated after 7, 14 days of application (DAA). The target weed was Brachiaria decumbens, and the concentration of the herbicide and the results are recorded in the table 1 below:
Experiment was conducted to assess the efficacy herbicidal combination comprising L-glufosinate ammonium (glufosinate-p-ammonium) and quizalofop-ethyl to control the weed, Brachiaria decumbens.
The percentage efficacy was calculated after 28 and 35 days of application (DAA). The target weed was Brachiaria decumbens, and the concentration of the herbicide and the results are recorded in the table 2 below:
Experiment was conducted to assess the efficacy herbicidal combination comprising L-glufosinate ammonium (glufosinate-p-ammonium) and quizalofop-P-tefuryl to control the weed, Brachiaria decumbens.
The percentage efficacy was calculated after 14, 21, 28, 35 days of application (DAA). The target weed was Brachiaria decumbens, and the concentration of the herbicide and the results are recorded in the table 3 below: […]

[1] = tested on: Viola arvensis, Bromus spp., Lolium spp., Agropyron repens and Urtica urens; conditions: reported by Hoechst et al., 1991; cited from earlier work
Spermacoce latifolia = assay: Greenhouse post-emergence herbicidal efficacy, % weed control; assay type: in vivo; conditions: Table 7, L-glufosinate ammonium 150, haloxyfop 50 g/ha
Description: as §1, §2, §3, §4, §5, §6
Experiment was conducted to assess the efficacy herbicidal combination comprising L-glufosinate ammonium (glufosinate-p-ammonium) and haloxyfop to control the weed, Spermacoce latifolia.
The percentage efficacy was calculated after 7, 14, 21, 28, 35 days of application (DAA). The target weed was Spermacoce latifolia, and the concentration of the herbicide and the results are recorded in the table 7 below: […]

[2] = Table 9, 3 DAA, L-glufosinate ammonium 150, quizalofop-ethyl 25 g/ha
[3] = Table 9, 28 DAA, L-glufosinate ammonium 150, quizalofop-ethyl 25 g/ha
[4] = Table 9, 35 DAA, L-glufosinate ammonium 150, quizalofop-ethyl 25 g/ha
[5] = Table 5, 21 DAA, L-glufosinate ammonium 150, quizalofop-ethyl 25 g ai/ha
[6] = Table 2, 28 DAA, L-glufosinate ammonium 150, quizalofop-ethyl 25 g a.i./ha
[7] = Table 2, 35 DAA, L-glufosinate ammonium 150, quizalofop-ethyl 25 g a.i./ha
[8] = Table 10, 3 DAA, L-glufosinate ammonium 150, quizalofop-p-tefuryl 25 g/h
[9] = Table 10, 28 DAA, L-glufosinate ammonium 150, quizalofop-p-tefuryl 25 g/h
[10] = Table 10, 35 DAA, L-glufosinate ammonium 150, quizalofop-p-tefuryl 25 g/h
[11] = Table 4, 7 DAA, L-glufosinate ammonium 150, haloxyfop 50 g ai/ha
[12] = Table 1, 7 DAA, L-glufosinate ammonium 150, haloxyfop 50 g a.i./ha
[13] = Table 1, 14 DAA, L-glufosinate ammonium 150, haloxyfop 50 g a.i./ha
[14] = Table 3, 14 DAA, L-glufosinate ammonium 150, quizalofop-p-tefuryl 25 g/ha
[15] = Table 3, 21 DAA, L-glufosinate ammonium 150, quizalofop-p-tefuryl 25 g/ha
[16] = Table 3, 28 DAA, L-glufosinate ammonium 150, quizalofop-p-tefuryl 25 g/ha
[17] = Table 3, 35 DAA, L-glufosinate ammonium 150, quizalofop-p-tefuryl 25 g/ha

SMILES	Control % (Glycine max; [2]) [%]	Control % (Glycine max; [3]) [%]	Control % (Glycine max; [4]) [%]	% control (Eleusine indica; [5]) [%]	Control % (Brachiaria decumbens; [6]) [%]	Control % (Brachiaria decumbens; [7]) [%]	% control (Glycine max; 3 DAA) [%]	% control (Glycine max; 7 DAA) [%]	% control (Glycine max; 14 DAA) [%]	% control (Glycine max; 21 DAA) [%]	% control (Glycine max; 28 DAA) [%]	% control (Glycine max; 35 DAA) [%]	Control % (Glycine max; [8]) [%]	Control % (Glycine max; [9]) [%]	Control % (Glycine max; [10]) [%]	% control (Eleusine indica; [11]) [%]	Control % (Eleusine indica; 21 DAA) [%]	Control % (Eleusine indica; 28 DAA) [%]	Control % (Eleusine indica; 35 DAA) [%]	Control % (Brachiaria decumbens; [12]) [%]	further results
CCOC(=O)C(C)Oc1ccc(Oc2cnc3cc(Cl)ccc3n2)cc1 (stereo not shown) [quizalofop-ethyl]	0	0	0	95	35	30	–	–	–	–	–	–	–	–	–	–	–	–	–	–	–
CP(=O)(O)CCC(N)C(=O)O (racemic) [glufosinate, DL-homoalanin-4-yl(methyl)phosphinic acid]	–	–	–	–	–	–	–	–	–	–	–	–	–	–	–	–	–	–	–	–	control of weed species [1]: either not combated, or only weakly combated
CP(=O)(O)CC[C@H](N)C(=O)O.N [L-glufosinate ammonium, ammonium (2S)-2-amino-4-(methylphosphinato)butyric acid]	50	40	40	35	60	55	15	53.3	71	66.7	56.7	41.7	50	60	55	50.7	25	20	18	50	Control % (Brachiaria decumbens; [13]): 79.3%; Control % (Brachiaria decumbens; [14]): 75%; Control % (Brachiaria decumbens; [15]): 70%; Control % (Brachiaria decumbens; [16]): 60%; Control % (Brachiaria decumbens; [17]): 55%; Control % (Spermacoce latifolia; 7 DAA): 31.7%; Control % (Spermacoce latifolia; 14 DAA): 81.7%; Control % (Spermacoce latifolia; 21 DAA): 83.3%; Control % (Spermacoce latifolia; 28 DAA): 83.3%; Control % (Spermacoce latifolia; 35 DAA): 83.3%
C[C@@H](Oc1ccc(Oc2cnc3cc(Cl)ccc3n2)cc1)C(=O)OCC1CCCO1 (stereo partly shown) [quizalofop-p-tefuryl]	–	–	–	–	–	–	–	–	–	–	–	–	0	0	0	–	10	5	5	–	Control % (Brachiaria decumbens; [14]): 20%; Control % (Brachiaria decumbens; [15]): 10%; Control % (Brachiaria decumbens; [16]): 5%; Control % (Brachiaria decumbens; [17]): 5%
CC(Oc1ccc(Oc2ncc(C(F)(F)F)cc2Cl)cc1)C(=O)O (stereo not shown) [Haloxyfop, haloxyfop]	–	–	–	–	–	–	5	13.3	15	12.3	12.3	12.3	–	–	–	25	–	–	–	26.7	Control % (Brachiaria decumbens; [13]): 75.3%; Control % (Spermacoce latifolia; 7 DAA): 8%; Control % (Spermacoce latifolia; 14 DAA): 8.7%; Control % (Spermacoce latifolia; 21 DAA): 10%; Control % (Spermacoce latifolia; 28 DAA): 31%; Control % (Spermacoce latifolia; 35 DAA): 9.3%

From patent publication US20260206764A1, “AN HERBICIDAL COMBINATION, COMPOSITION AND METHOD OF CONTROLLING WEEDS USING THE SAME” (priority 2023, published 2026)
